# Experimental data published in patent US9499446B2, “Zinc-essential for flora and fauna” (priority 2012, dated 2016).
# What was measured:
# Wheat cultivar PBW 550 = assay: Experiment I: field experiments in wheat under different Zn treatments (PAU research farm and farmer's field, Jattpur); assay type: in vivo; conditions: soil application 62.5 kg ha^−1
# Experimental: Field Experiments in wheat was carried out using the composition of the present invention for two consecutive years in Punjab Agriculture University (PAU) Research Farm and Framer's field (Jattpur) loamy soil. Wheat cultivar PBW 550 seeds were sown during the first week of November. Two Zn chelates at different concentrations at two stages of wheat plant growth were applied through foliar application. In another treatment, Zn was added to the soil as basal dose at 62.5 kg ha^−1 using ZnSO4.7H2O salt. The first application of Zn chelate spray was done at maximum tillering stage and the second application was made at panicle initiation stage. Various parameters like plant height, tillers and 1000-grain weight were noted. Additionally during maturity in the month of April, the wheat grain and straw yield were noted.
# The physio-chemical analyses of the soil before the start of the experiment was carried out at the two locations were the experiments were to be carried.
# The plant parameters in wheat under different Zn treatments at PAU research farm and farmer's field are shown in Table 3 and Table 4 respectively and grain and straw yields in wheat under different Zn treatments at PAU research farm and farmer's field are shown in Table 5 and Table 6 respectively.
# wheat crops = assay: Experiment II: field experiments in wheat, irrigated north-west plain zone of Rajasthan; assay type: in vivo; conditions: 24 kg ha^−1
# Experimental: Field Experiments in wheat was carried out using the composition of the present invention in the soils of the irrigated north-west plain zone of Rajasthan. The soils of north-west plain zone are deficient in zinc and poor growth or deficiency symptoms appear on the wheat crops. Two foliar sprays were applied. First, during the vegetative growth stage on early appearance of the deficiency symptoms and the second foliar spray during the flag leaf initiation stage of the wheat crop. [table] The soil of the irrigated north-west plain zone of Rajasthan has a pH, of 8.27 and electric conductivity was 0.20 dS^−m. […] The diethylene triamine pentaacetic acid (DTPA) extractable zinc concentration in the soil was low.
# [1] = PAU research farm, Rabi 2009-2010
# [2] = PAU research farm, Rabi 2010-2011
smiles,measurement,setting,value
O.O.O.O.O.O.O.O=S(=O)([O-])[O-].[Zn+2] [ZnSO4•7H2O],1000 grains weight,Wheat cultivar PBW 550; [1],38.4 g
same,Grain yield,Wheat cultivar PBW 550; [1],52.5 q ha^−1
same,Grain yield % increase over control,Wheat cultivar PBW 550; [1],10.8%
same,Plant height (cm),Wheat cultivar PBW 550; [1],76.7 cm
same,Straw yield,Wheat cultivar PBW 550; [1],65.0 q ha^−1
same,Straw yield % increase over control,Wheat cultivar PBW 550; [1],3.7%
same,Tillers per square meter,Wheat cultivar PBW 550; [1],293
same,1000 grains weight,Wheat cultivar PBW 550; [2],38.7 g
same,Grain yield,Wheat cultivar PBW 550; [2],54.4 q ha^−1
same,Grain yield % increase over control,Wheat cultivar PBW 550; [2],13.3%
same,Plant height (cm),Wheat cultivar PBW 550; [2],97.69 cm
same,Straw yield,Wheat cultivar PBW 550; [2],65.7 q ha^−1
same,Straw yield % increase over control,Wheat cultivar PBW 550; [2],5.5%
same,Tillers per square meter,Wheat cultivar PBW 550; [2],377
same,1000 grains weight,"Wheat cultivar PBW 550; farmer's field, Rabi 2009-2010",35.1 g
same,Grain yield,"Wheat cultivar PBW 550; farmer's field, Rabi 2009-2010",46.7 q ha^−1
same,Grain yield % increase over control,"Wheat cultivar PBW 550; farmer's field, Rabi 2009-2010",28.7%
same,Plant height (cm),"Wheat cultivar PBW 550; farmer's field, Rabi 2009-2010",76.6 cm
same,Straw yield,"Wheat cultivar PBW 550; farmer's field, Rabi 2009-2010",55.3 q ha^−1
same,Straw yield % increase over control,"Wheat cultivar PBW 550; farmer's field, Rabi 2009-2010",9.1%
same,Tillers per square meter,"Wheat cultivar PBW 550; farmer's field, Rabi 2009-2010",272
same,1000 grains weight,"Wheat cultivar PBW 550; farmer's field, Rabi 2010-2011",34.3 g
same,Grain yield,"Wheat cultivar PBW 550; farmer's field, Rabi 2010-2011",46.0 q ha^−1
same,Grain yield % increase over control,"Wheat cultivar PBW 550; farmer's field, Rabi 2010-2011",28.5%
same,Plant height (cm),"Wheat cultivar PBW 550; farmer's field, Rabi 2010-2011",74.7 cm
same,Straw yield,"Wheat cultivar PBW 550; farmer's field, Rabi 2010-2011",54.7 q ha^−1
same,Straw yield % increase over control,"Wheat cultivar PBW 550; farmer's field, Rabi 2010-2011",20.8%
same,Tillers per square meter,"Wheat cultivar PBW 550; farmer's field, Rabi 2010-2011",353
O=S(=O)([O-])[O-].[Zn+2] [ZnSO4],1000 Grain weight,wheat crops,39.73 g
same,Ear length (cm),wheat crops,10.18 cm
same,No. of tillers m^−1 row length,wheat crops,122
same,Yield (tonne ha^−1) Grain,wheat crops,4.57 tonne ha^−1
same,Yield (tonne ha^−1) Straw,wheat crops,6.61 tonne ha^−1
same,Zn conc,wheat crops,30.25 mg/kg
